PubChem BioAssay AID1918937 (Molecular Pharmacology Branch, DTP, NCI, 2023)
pIC50: −log10 of the molar value.

Test system: 521955-158-R2-J5-PDC complex spheroid viability
Assay: Anticancer human tumor 521955-158-R2-J5-PDC patient-derived pancreatic carcinoma cell line growth inhibition
Settings: for pIC50: curve of first compound; for viability, T/C: stronger effect = lower value
Method in brief: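 Drug combinations with the LSD1 inhibitor iadademstat tested on tumor cells co-cultured as spheroids with endothelial cells and mesenchymal stem cells. Concentrations descended in half-log increments from clinical Cmax or 10 microM.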

[1] = second compound 0.1 µM, first compound 0.0316 µM
[2] = second compound 0.1 µM, first compound 0.1 µM
[3] = second compound 0.1 µM, first compound 0.316 µM
[4] = second compound 0.1 µM, first compound 1 µM
[5] = second compound 0.316 µM, first compound 0.0316 µM
[6] = second compound 0.316 µM, first compound 0.1 µM
[7] = second compound 0.316 µM, first compound 0.316 µM
[8] = second compound 0.316 µM, first compound 1 µM
[9] = second compound 1 µM, first compound 0.0316 µM
[10] = second compound 1 µM, first compound 0.1 µM
[11] = second compound 1 µM, first compound 0.316 µM
[12] = second compound 1 µM, first compound 1 µM
[13] = second compound 3.16 µM, first compound 0.0316 µM
[14] = second compound 3.16 µM, first compound 0.1 µM
[15] = second compound 3.16 µM, first compound 0.316 µM
[16] = second compound 3.16 µM, first compound 1 µM
[17] = second compound 10 µM, first compound 0.0316 µM
[18] = second compound 10 µM, first compound 0.1 µM
[19] = second compound 10 µM, first compound 0.316 µM
[20] = second compound 10 µM, first compound 1 µM
[21] = second compound 0.1 µM, first compound 0.00949 µM
[22] = second compound 0.1 µM, first compound 0.03 µM
[23] = second compound 0.1 µM, first compound 0.0949 µM
[24] = second compound 0.1 µM, first compound 0.3 µM
[25] = second compound 0.316 µM, first compound 0.00949 µM
[26] = second compound 0.316 µM, first compound 0.03 µM
[27] = second compound 0.316 µM, first compound 0.0949 µM
[28] = second compound 0.316 µM, first compound 0.3 µM
[29] = second compound 1 µM, first compound 0.00949 µM
[30] = second compound 1 µM, first compound 0.03 µM
[31] = second compound 1 µM, first compound 0.0949 µM
[32] = second compound 1 µM, first compound 0.3 µM
[33] = second compound 3.16 µM, first compound 0.00949 µM
[34] = second compound 3.16 µM, first compound 0.03 µM
[35] = second compound 3.16 µM, first compound 0.0949 µM
[36] = second compound 3.16 µM, first compound 0.3 µM
[37] = second compound 10 µM, first compound 0.00949 µM
[38] = second compound 10 µM, first compound 0.03 µM
[39] = second compound 10 µM, first compound 0.0949 µM
[40] = second compound 10 µM, first compound 0.3 µM
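Note: spheroids exposed to agents for seven days.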
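Throughout, for viability, T/C: percent of DMSO vehicle control luminescence viability.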

SMILES: CC1COCCN1c1cc(C2(S(C)(=N)=O)CC2)nc(-c2ccnc3[nH]ccc23)n1 (stereo not given) + NC1CC1c1ccc(-c2cccc(O)c2)cc1
- pIC50 (second compound 0.1 µM): 6.25
- pIC50 (second compound 0.316 µM): 6.27
- pIC50 (second compound 1 µM): 6.18
- pIC50 (second compound 3.16 µM): 6.23
- pIC50 (second compound 10 µM): 6.25
- viability, T/C [1]: 82.3%
- viability, T/C [2]: 93.9%
- viability, T/C [3]: 77.7%
- viability, T/C [4]: 22.6%
- viability, T/C (second compound 0.1 µM, first compound 3.16 µM): 15.7%
- viability, T/C (second compound 0.1 µM, first compound 10 µM): 20.8%
- viability, T/C [5]: 84%
- viability, T/C [6]: 86.3%
- viability, T/C [7]: 74.5%
- viability, T/C [8]: 22.4%
- viability, T/C (second compound 0.316 µM, first compound 3.16 µM): 15.2%
- viability, T/C (second compound 0.316 µM, first compound 10 µM): 20.4%
- viability, T/C [9]: 83%
- viability, T/C [10]: 90.8%
- viability, T/C [11]: 87.6%
- viability, T/C [12]: 29.7%
- viability, T/C (second compound 1 µM, first compound 3.16 µM): 15.9%
- viability, T/C (second compound 1 µM, first compound 10 µM): 16.8%
- viability, T/C [13]: 81%
- viability, T/C [14]: 80.2%
- viability, T/C [15]: 78.5%
- viability, T/C [16]: 25.5%
- viability, T/C (second compound 3.16 µM, first compound 3.16 µM): 14.9%
- viability, T/C (second compound 3.16 µM, first compound 10 µM): 15.3%
- viability, T/C [17]: 88.8%
- viability, T/C [18]: 102%
- viability, T/C [19]: 69.8%
- viability, T/C [20]: 30.7%
- viability, T/C (second compound 10 µM, first compound 3.16 µM): 14.9%
- viability, T/C (second compound 10 µM, first compound 10 µM): 17.6%

SMILES: CCN(c1cc(-c2ccc(CN3CCOCC3)cc2)cc(C(=O)NCc2c(C)cc(C)[nH]c2=O)c1C)C1CCOCC1 + NC1CC1c1ccc(-c2cccc(O)c2)cc1
- pIC50 (second compound 0.1 µM): < 5.52
- pIC50 (second compound 0.316 µM): < 5.52
- pIC50 (second compound 1 µM): < 5.52
- pIC50 (second compound 3.16 µM): < 5.52
- pIC50 (second compound 10 µM): < 5.52
- viability, T/C [21]: 98.8%
- viability, T/C [22]: 96.3%
- viability, T/C [23]: 87.4%
- viability, T/C [24]: 82.1%
- viability, T/C (second compound 0.1 µM, first compound 0.949 µM): 86.8%
- viability, T/C (second compound 0.1 µM, first compound 3 µM): 72.3%
- viability, T/C [25]: 89%
- viability, T/C [26]: 85.2%
- viability, T/C [27]: 82.4%
- viability, T/C [28]: 82.2%
- viability, T/C (second compound 0.316 µM, first compound 0.949 µM): 82.2%
- viability, T/C (second compound 0.316 µM, first compound 3 µM): 77.5%
- viability, T/C [29]: 75.5%
- viability, T/C [30]: 88.3%
- viability, T/C [31]: 88.4%
- viability, T/C [32]: 87.1%
- viability, T/C (second compound 1 µM, first compound 0.949 µM): 79.8%
- viability, T/C (second compound 1 µM, first compound 3 µM): 85.7%
- viability, T/C [33]: 91.2%
- viability, T/C [34]: 91.6%
- viability, T/C [35]: 92.4%
- viability, T/C [36]: 83.9%
- viability, T/C (second compound 3.16 µM, first compound 0.949 µM): 70.9%
- viability, T/C (second compound 3.16 µM, first compound 3 µM): 77.7%
- viability, T/C [37]: 83.4%
- viability, T/C [38]: 110%
- viability, T/C [39]: 92.2%
- viability, T/C [40]: 82.7%
- viability, T/C (second compound 10 µM, first compound 0.949 µM): 80.3%
- viability, T/C (second compound 10 µM, first compound 3 µM): 76.7%

SMILES: Nc1ncn(C2CC(O)C(CO)S2)c(=O)n1 (stereo not given) + NC1CC1c1ccc(-c2cccc(O)c2)cc1
- pIC50 (second compound 0.1 µM): < 6.52
- pIC50 (second compound 0.316 µM): < 6.52
- pIC50 (second compound 1 µM): < 6.52
- pIC50 (second compound 3.16 µM): < 6.52
- pIC50 (second compound 10 µM): < 6.52
- viability, T/C (second compound 0.1 µM, first compound 0.000949 µM): 90.7%
- viability, T/C (second compound 0.1 µM, first compound 0.003 µM): 96.2%
- viability, T/C [21]: 90.1%
- viability, T/C [22]: 98%
- viability, T/C [23]: 85.2%
- viability, T/C [24]: 64.7%
- viability, T/C (second compound 0.316 µM, first compound 0.000949 µM): 98.7%
- viability, T/C (second compound 0.316 µM, first compound 0.003 µM): 94.3%
- viability, T/C [25]: 93.1%
- viability, T/C [26]: 89.5%
- viability, T/C [27]: 76.6%
- viability, T/C [28]: 69.2%
- viability, T/C (second compound 1 µM, first compound 0.000949 µM): 98.4%
- viability, T/C (second compound 1 µM, first compound 0.003 µM): 90%
- viability, T/C [29]: 94%
- viability, T/C [30]: 88.8%
- viability, T/C [31]: 90%
- viability, T/C [32]: 75.3%
- viability, T/C (second compound 3.16 µM, first compound 0.000949 µM): 98.5%
- viability, T/C (second compound 3.16 µM, first compound 0.003 µM): 101%
- viability, T/C [33]: 92.7%
- viability, T/C [34]: 91%
- viability, T/C [35]: 87.6%
- viability, T/C [36]: 69.9%
- viability, T/C (second compound 10 µM, first compound 0.000949 µM): 99%
- viability, T/C (second compound 10 µM, first compound 0.003 µM): 105%
- viability, T/C [37]: 100%
- viability, T/C [38]: 97.3%
- viability, T/C [39]: 90.3%
- viability, T/C [40]: 71.8%

SMILES: O=C(C=Cn1cnc(-c2cc(C(F)(F)F)cc(C(F)(F)F)c2)n1)NNc1cnccn1 + NC1CC1c1ccc(-c2cccc(O)c2)cc1
- pIC50 (second compound 0.1 µM): 6.66
- pIC50 (second compound 0.316 µM): 6.69
- pIC50 (second compound 1 µM): 6.77
- pIC50 (second compound 3.16 µM): 7.12
- pIC50 (second compound 10 µM): 7.75
- viability, T/C (second compound 0.1 µM, first compound 0.00316 µM): 81.3%
- viability, T/C (second compound 0.1 µM, first compound 0.01 µM): 75%
- viability, T/C [1]: 85.6%
- viability, T/C [2]: 65.6%
- viability, T/C [3]: 42.5%
- viability, T/C [4]: 23.1%
- viability, T/C (second compound 0.316 µM, first compound 0.00316 µM): 69.8%
- viability, T/C (second compound 0.316 µM, first compound 0.01 µM): 79.1%
- viability, T/C [5]: 78.5%
- viability, T/C [6]: 78%
- viability, T/C [7]: 34.2%
- viability, T/C [8]: 22.7%
- viability, T/C (second compound 1 µM, first compound 0.00316 µM): 65.1%
- viability, T/C (second compound 1 µM, first compound 0.01 µM): 66.5%
- viability, T/C [9]: 79.3%
- viability, T/C [10]: 53.6%
- viability, T/C [11]: 40.5%
- viability, T/C [12]: 19.4%
- viability, T/C (second compound 3.16 µM, first compound 0.00316 µM): 67.2%
- viability, T/C (second compound 3.16 µM, first compound 0.01 µM): 61.2%
- viability, T/C [13]: 52.2%
- viability, T/C [14]: 50.4%
- viability, T/C [15]: 36.9%
- viability, T/C [16]: 17.5%
- viability, T/C (second compound 10 µM, first compound 0.00316 µM): 56.6%
- viability, T/C (second compound 10 µM, first compound 0.01 µM): 56.9%
- viability, T/C [17]: 43.6%
- viability, T/C [18]: 36.5%
- viability, T/C [19]: 24.7%
- viability, T/C [20]: 16.8%
